Assay results published in PubChem BioAssay AID1919013 (Molecular Pharmacology Branch, DTP, NCI, 2023).

Test system: LG0703-F498-PDC complex spheroid growth
Test: Anticancer human tumor LG0703-F498-PDC patient-derived lung adenocarcinoma cell line growth inhibition [AhR]
Details: for IC50: curve of first compound; for viability, T/C: stronger effect = lower value; active means viability on the fitted dose curve at most 10% of control; inactive means the rest
Summary of the method: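 Agents were dosed in half-log steps down from roughly clinical Cmax, or from 10 microM where Cmax was unknown, alone and with AhR antagonists. Read-out: percent test/control growth of tumor spheroids containing HUVEC and MSC stromal cells.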

[1] = second compound 0.1 µM, first compound 0.0316 µM
[2] = second compound 0.1 µM, first compound 0.1 µM
[3] = second compound 0.1 µM, first compound 0.316 µM
[4] = second compound 0.1 µM, first compound 1 µM
[5] = second compound 0.316 µM, first compound 0.0316 µM
[6] = second compound 0.316 µM, first compound 0.1 µM
[7] = second compound 0.316 µM, first compound 0.316 µM
[8] = second compound 0.316 µM, first compound 1 µM
[9] = second compound 1 µM, first compound 0.0316 µM
[10] = second compound 1 µM, first compound 0.1 µM
[11] = second compound 1 µM, first compound 0.316 µM
[12] = second compound 1 µM, first compound 1 µM
[13] = second compound 3.16 µM, first compound 0.0316 µM
[14] = second compound 3.16 µM, first compound 0.1 µM
[15] = second compound 3.16 µM, first compound 0.316 µM
[16] = second compound 3.16 µM, first compound 1 µM
[17] = second compound 10 µM, first compound 0.0316 µM
[18] = second compound 10 µM, first compound 0.1 µM
[19] = second compound 10 µM, first compound 0.316 µM
[20] = second compound 10 µM, first compound 1 µM
[21] = second compound 0.1 µM, first compound 0.00949 µM
[22] = second compound 0.1 µM, first compound 0.03 µM
[23] = second compound 0.1 µM, first compound 0.0949 µM
[24] = second compound 0.1 µM, first compound 0.3 µM
[25] = second compound 0.1 µM, first compound 0.949 µM
[26] = second compound 0.1 µM, first compound 3 µM
[27] = second compound 0.316 µM, first compound 0.00949 µM
[28] = second compound 0.316 µM, first compound 0.03 µM
[29] = second compound 0.316 µM, first compound 0.0949 µM
[30] = second compound 0.316 µM, first compound 0.3 µM
[31] = second compound 0.316 µM, first compound 0.949 µM
[32] = second compound 0.316 µM, first compound 3 µM
[33] = second compound 1 µM, first compound 0.00949 µM
[34] = second compound 1 µM, first compound 0.03 µM
[35] = second compound 1 µM, first compound 0.0949 µM
[36] = second compound 1 µM, first compound 0.3 µM
[37] = second compound 1 µM, first compound 0.949 µM
[38] = second compound 1 µM, first compound 3 µM
[39] = second compound 3.16 µM, first compound 0.00949 µM
[40] = second compound 3.16 µM, first compound 0.03 µM
[41] = second compound 3.16 µM, first compound 0.0949 µM
[42] = second compound 3.16 µM, first compound 0.3 µM
[43] = second compound 3.16 µM, first compound 0.949 µM
[44] = second compound 3.16 µM, first compound 3 µM
[45] = second compound 10 µM, first compound 0.00949 µM
[46] = second compound 10 µM, first compound 0.03 µM
[47] = second compound 10 µM, first compound 0.0949 µM
[48] = second compound 10 µM, first compound 0.3 µM
[49] = second compound 10 µM, first compound 0.949 µM
[50] = second compound 10 µM, first compound 3 µM
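Further: luminescence taken as a proxy for viable cell amount.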
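Wherever viability, T/C is given: percent of DMSO vehicle control where 100% means growth equal to vehicle.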

CC1COCCN1c1cc(-c2ccnn2C)c2ccnc(-c3ccn[nH]3)c2n1 (stereo not given) + CC(CO)NC(=O)c1cc(-c2ccc(Cl)cc2)nn(-c2cnn(C)c2)c1=O
inactive: viability, T/C (second compound 0.1 µM, first compound 0.00316 µM) 107% | viability, T/C (second compound 0.1 µM, first compound 0.01 µM) 104% | viability, T/C [1] 93.4% | viability, T/C [2] 70.6% | viability, T/C [3] 66.2% | viability, T/C [4] 42.5% | viability, T/C (second compound 0.316 µM, first compound 0.00316 µM) 93.2% | viability, T/C (second compound 0.316 µM, first compound 0.01 µM) 110% | viability, T/C [5] 96.6% | viability, T/C [6] 72.5% | viability, T/C [7] 55.8% | viability, T/C [8] 43.4% | viability, T/C (second compound 1 µM, first compound 0.00316 µM) 108% | viability, T/C (second compound 1 µM, first compound 0.01 µM) 102% | viability, T/C [9] 90.7% | viability, T/C [10] 82.4% | viability, T/C [11] 58.1% | viability, T/C [12] 42.5% | viability, T/C (second compound 3.16 µM, first compound 0.00316 µM) 87.5% | viability, T/C (second compound 3.16 µM, first compound 0.01 µM) 90.5% | viability, T/C [13] 78.2% | viability, T/C [14] 67.2% | viability, T/C [15] 55.1% | viability, T/C [16] 37.9% | viability, T/C (second compound 10 µM, first compound 0.00316 µM) 101% | viability, T/C (second compound 10 µM, first compound 0.01 µM) 90.1% | viability, T/C [17] 82.7% | viability, T/C [18] 60.8% | viability, T/C [19] 47.1% | viability, T/C [20] 32.6%
666 nM: IC50 (second compound 0.1 µM)
243 nM: IC50 (second compound 10 µM)
602 nM: IC50 (second compound 1 µM)
416 nM: IC50 (second compound 3.16 µM)
465 nM: IC50 (second compound 0.316 µM)

CC1COCCN1c1cc(C2(S(C)(=N)=O)CC2)nc(-c2ccnc3[nH]ccc23)n1 (stereo not given) + CC(CO)NC(=O)c1cc(-c2ccc(Cl)cc2)nn(-c2cnn(C)c2)c1=O
inactive: viability, T/C [1] 101% | viability, T/C [2] 91.6% | viability, T/C [3] 89.7% | viability, T/C [4] 99.3% | viability, T/C (second compound 0.1 µM, first compound 3.16 µM) 79.1% | viability, T/C (second compound 0.1 µM, first compound 10 µM) 63.4% | viability, T/C [5] 92.6% | viability, T/C [6] 91.7% | viability, T/C [7] 93.7% | viability, T/C [8] 90.2% | viability, T/C (second compound 0.316 µM, first compound 3.16 µM) 86% | viability, T/C (second compound 0.316 µM, first compound 10 µM) 53.1% | viability, T/C [9] 97.8% | viability, T/C [10] 92.8% | viability, T/C [11] 88.3% | viability, T/C [12] 91% | viability, T/C (second compound 1 µM, first compound 3.16 µM) 68.8% | viability, T/C (second compound 1 µM, first compound 10 µM) 60% | viability, T/C [13] 89.9% | viability, T/C [14] 89% | viability, T/C [15] 95.8% | viability, T/C [16] 82.3% | viability, T/C (second compound 3.16 µM, first compound 3.16 µM) 79.1% | viability, T/C (second compound 3.16 µM, first compound 10 µM) 59.1% | viability, T/C [17] 76.1% | viability, T/C [18] 95.3% | viability, T/C [19] 73.8% | viability, T/C [20] 83.7% | viability, T/C (second compound 10 µM, first compound 3.16 µM) 59.6% | viability, T/C (second compound 10 µM, first compound 10 µM) 51.3%
> 10000 nM: IC50 (second compound 0.1 µM) | IC50 (second compound 0.316 µM) | IC50 (second compound 1 µM) | IC50 (second compound 3.16 µM) | IC50 (second compound 10 µM)

CCN(c1cc(-c2ccc(CN3CCOCC3)cc2)cc(C(=O)NCc2c(C)cc(C)[nH]c2=O)c1C)C1CCOCC1 + CC(CO)NC(=O)c1cc(-c2ccc(Cl)cc2)nn(-c2cnn(C)c2)c1=O
> 3000 nM: IC50 (second compound 0.1 µM) | IC50 (second compound 0.316 µM) | IC50 (second compound 1 µM) | IC50 (second compound 3.16 µM) | IC50 (second compound 10 µM)
inactive: viability, T/C [21] 98.2% | viability, T/C [22] 100% | viability, T/C [23] 93.9% | viability, T/C [24] 96.1% | viability, T/C [25] 95.7% | viability, T/C [26] 94.6% | viability, T/C [27] 105% | viability, T/C [28] 112% | viability, T/C [29] 101% | viability, T/C [30] 92.9% | viability, T/C [31] 114% | viability, T/C [32] 105% | viability, T/C [33] 91.1% | viability, T/C [34] 95.7% | viability, T/C [35] 99% | viability, T/C [36] 90% | viability, T/C [37] 92.9% | viability, T/C [38] 103% | viability, T/C [39] 85.1% | viability, T/C [40] 95.3% | viability, T/C [41] 96.7% | viability, T/C [42] 81.2% | viability, T/C [43] 84.8% | viability, T/C [44] 102% | viability, T/C [45] 86% | viability, T/C [46] 97.1% | viability, T/C [47] 94.2% | viability, T/C [48] 93.8% | viability, T/C [49] 78.3% | viability, T/C [50] 96.3%

Nc1ncn(C2CC(O)C(CO)S2)c(=O)n1 (stereo not given) + CC(CO)NC(=O)c1cc(-c2ccc(Cl)cc2)nn(-c2cnn(C)c2)c1=O
inactive: viability, T/C (second compound 0.1 µM, first compound 0.000949 µM) 89.3% | viability, T/C (second compound 0.1 µM, first compound 0.003 µM) 96.6% | viability, T/C [21] 95.6% | viability, T/C [22] 102% | viability, T/C [23] 92.8% | viability, T/C [24] 91.8% | viability, T/C (second compound 0.316 µM, first compound 0.000949 µM) 108% | viability, T/C (second compound 0.316 µM, first compound 0.003 µM) 93.9% | viability, T/C [27] 96.2% | viability, T/C [28] 103% | viability, T/C [29] 97.1% | viability, T/C [30] 97.8% | viability, T/C (second compound 1 µM, first compound 0.000949 µM) 82.4% | viability, T/C (second compound 1 µM, first compound 0.003 µM) 92% | viability, T/C [33] 90.2% | viability, T/C [34] 76.9% | viability, T/C [35] 84.8% | viability, T/C [36] 97.7% | viability, T/C (second compound 3.16 µM, first compound 0.000949 µM) 80.5% | viability, T/C (second compound 3.16 µM, first compound 0.003 µM) 90.9% | viability, T/C [39] 78.3% | viability, T/C [40] 94.8% | viability, T/C [41] 96.1% | viability, T/C [42] 89.5% | viability, T/C (second compound 10 µM, first compound 0.000949 µM) 86.9% | viability, T/C (second compound 10 µM, first compound 0.003 µM) 86.7% | viability, T/C [45] 84.9% | viability, T/C [46] 86.7% | viability, T/C [47] 81.9% | viability, T/C [48] 92.2%
> 300 nM: IC50 (second compound 0.1 µM) | IC50 (second compound 0.316 µM) | IC50 (second compound 1 µM) | IC50 (second compound 3.16 µM) | IC50 (second compound 10 µM)

O=C(C=Cn1cnc(-c2cc(C(F)(F)F)cc(C(F)(F)F)c2)n1)NNc1cnccn1 + CC(CO)NC(=O)c1cc(-c2ccc(Cl)cc2)nn(-c2cnn(C)c2)c1=O
39.7 nM: IC50 (second compound 10 µM)
60 nM: IC50 (second compound 0.1 µM)
inactive: viability, T/C [21] 68.1% | viability, T/C [22] 64.5% | viability, T/C [23] 40.4% | viability, T/C [24] 40.6% | viability, T/C [25] 37.8% | viability, T/C [26] 36.9% | viability, T/C [27] 67.3% | viability, T/C [28] 54.5% | viability, T/C [29] 42.1% | viability, T/C [30] 36.2% | viability, T/C [31] 35.6% | viability, T/C [32] 32.4% | viability, T/C [33] 64.8% | viability, T/C [34] 54.1% | viability, T/C [35] 48% | viability, T/C [36] 36.7% | viability, T/C [37] 34.1% | viability, T/C [38] 34.1% | viability, T/C [39] 59.5% | viability, T/C [40] 50.1% | viability, T/C [41] 36.1% | viability, T/C [42] 38.2% | viability, T/C [43] 28.7% | viability, T/C [44] 31.4% | viability, T/C [45] 61% | viability, T/C [46] 54.7% | viability, T/C [47] 35.7% | viability, T/C [48] 33.3% | viability, T/C [49] 28.6% | viability, T/C [50] 28.9%
57.3 nM: IC50 (second compound 1 µM)
45.6 nM: IC50 (second compound 0.316 µM)
26.9 nM: IC50 (second compound 3.16 µM)
